Data from patent US20080318792A1, “Extension of pollination period” (priority 2007, published 2008).
Where a name gives a salt, the structure may show the parent alone.

Test system: Hughes 1883 hybrid corn seed
Assay: Soil germination/emergence of corn seed treated with different forms of ABA in slurry
Assay type: in vivo
Details: 25 g/cwt as free acid
Protocol: Three forms of ABA were evaluated in this experiment 1) free acid, 2) ammonium salt, and 3) sodium salt. The cation is referred to as the “counter-ion” below. […] The treatments were made up in 3 ml samples of experimental aqueous seed treatment slurry. All of the seed treatment slurry samples contained CF-Clear film-forming agent and Colorcoat Red (Becker Underwood), each at 1 oz/cwt, and 0.167 oz/cwt Maxim XL fungicide (Syngenta). The slurry application volume was 20 oz/cwt (cwt=100 lbs of seed).
One hundred gram samples of Hughes 1883 hybrid corn seed were treated with the experimental slurries using a Hege 11 seed treater with a six-inch bowl.
The seed was planted in plastic boxes containing 1 kg of typical agricultural silt loam. Fifty seeds were planted 3 cm deep in each plastic box, and the soil in the box was adjusted to 21% soil moisture (wet-weight basis). Two replications of the experiment were incubated under constant light in a 25° C. chamber and two replications incubated under constant light in an 18° C. chamber. The boxes were watered up to the correct weight daily, and checked for emergence. Daily counts of seedlings were continued until emergence ceased. The final count of emerged seedlings was expressed as a percentage of the 50 seeds planted (GERM).
The daily counts were converted to proportions of the final germination of the box, and a Gompertz curve was fitted to the data from each box using SAS Proc NLIN. From the parameters of the model, median germination time (T50) and quartile range (QR) were estimated for each box. Analysis of variance was performed and means calculated for each of the three responses (GERM, T50, QR).

Row | SMILES | Final emergence (soil 18° C.) | QR (soil 18° C.) | T50 (soil 18° C.) | Final emergence (soil 25° C.) | QR (soil 25° C.) | T50 (soil 25° C.)
1 | CC1=CC(=O)CC(C)(C)[C@@]1(O)/C=C/C(C)=C\C(=O)O [ABA ammonium salt] | 91% | 3.52 days | 11.2 days | 91% | 1.34 days | 7.4 days
2 | CC1=CC(=O)CC(C)(C)[C@@]1(O)/C=C/C(C)=C\C(=O)[O-].[Na+] [ABA sodium salt] | 92% | 3.36 days | 10.9 days | 92% | 1.31 days | 7.1 days
